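Dose response: 5 concentrations. Exposure: 48 h. Format: 96-well plates. Endpoint: linear interpolation; highest concentration if not reached. TGI: total growth inhibition.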
System: SN12K1 renal
Assay: growth of human tumour cells (NCI), 48 h

SMILES | TGI
CSc1nc(NC2OCC(O)C(O)C2O)c(N)c(=O)[nH]1 (configuration not stated) | > 100 µM
CC(=O)c1ccc2c(c1)c1c(C)c3c[n+](C)ccc3c(C)c1n2C | 13.7 µM

— PubChem BioAssay (NCI)
